Measured values: the NIST ThermoML archive (doi:10.1016/j.jct.2011.11.014)

Assay: mn = molality of the nth substance listed, in mol/kg
Details: 101.3 kPa, Liquid; for speed of sound: Sing-around technique in a fixed-path interferometer; for mass density: Vibrating tube method

CCOC(=O)CC(=O)[O-].[K+] [potassium 3-ethoxy-3-oxopropanoate] + O
Details | mass density [kg/m3] | speed of sound [m/s]
288.15 K, m1 = 0.0116 | 999.92 | 1468.2
288.15 K, m1 = 0.0175 | 1000.34 | 1469
288.15 K, m1 = 0.0352 | 1001.57 | 1471.2
288.15 K, m1 = 0.0453 | 1002.29 | 1472.6
288.15 K, m1 = 0.0579 | 1003.14 | 1474.2
288.15 K, m1 = 0.1204 | 1007.45 | 1482.2
288.15 K, m1 = 0.18 | 1011.47 | 1489.7
288.15 K, m1 = 0.2369 | 1015.22 | 1496.6
288.15 K, m1 = 0.3076 | 1019.83 | 1505.1
293.15 K, m1 = 0.0116 | 999.013 | 1484.1
293.15 K, m1 = 0.0175 | 999.423 | 1484.9
293.15 K, m1 = 0.0352 | 1000.64 | 1487
293.15 K, m1 = 0.0453 | 1001.35 | 1488.3
293.15 K, m1 = 0.0579 | 1002.19 | 1489.8
293.15 K, m1 = 0.1204 | 1006.44 | 1497.2
293.15 K, m1 = 0.18 | 1010.41 | 1504.2
293.15 K, m1 = 0.2369 | 1014.11 | 1510.6
293.15 K, m1 = 0.3076 | 1018.65 | 1518.7
298.15 K, m1 = 0.0116 | 997.84 | 1498.2
298.15 K, m1 = 0.0175 | 998.247 | 1499
298.15 K, m1 = 0.0352 | 999.442 | 1500.9
298.15 K, m1 = 0.0453 | 1000.15 | 1502.1
298.15 K, m1 = 0.0579 | 1000.98 | 1503.5
298.15 K, m1 = 0.1204 | 1005.18 | 1510.4
298.15 K, m1 = 0.18 | 1009.1 | 1516.9
298.15 K, m1 = 0.2369 | 1012.76 | 1523
298.15 K, m1 = 0.3076 | 1017.25 | 1530.5
303.15 K, m1 = 0.0116 | 996.433 | 1510.5
303.15 K, m1 = 0.0175 | 996.835 | 1511.2
303.15 K, m1 = 0.0352 | 998.02 | 1513
303.15 K, m1 = 0.0453 | 998.716 | 1514.1
303.15 K, m1 = 0.0579 | 999.538 | 1515.4
303.15 K, m1 = 0.1204 | 1003.7 | 1521.9
303.15 K, m1 = 0.18 | 1007.58 | 1528
303.15 K, m1 = 0.2369 | 1011.19 | 1533.6
303.15 K, m1 = 0.3076 | 1015.64 | 1540.6
308.15 K, m1 = 0.0116 | 994.811 | 1521
308.15 K, m1 = 0.0175 | 995.206 | 1521.7
308.15 K, m1 = 0.0352 | 996.379 | 1523.4
308.15 K, m1 = 0.0453 | 997.071 | 1524.4
308.15 K, m1 = 0.0579 | 997.885 | 1525.7
308.15 K, m1 = 0.1204 | 1002 | 1531.8
308.15 K, m1 = 0.18 | 1005.85 | 1537.4
308.15 K, m1 = 0.2369 | 1009.43 | 1542.7
308.15 K, m1 = 0.3076 | 1013.83 | 1549.1
313.15 K, m1 = 0.0116 | 992.986 | 1530
313.15 K, m1 = 0.0175 | 993.379 | 1530.7
313.15 K, m1 = 0.0352 | 994.542 | 1532.2
313.15 K, m1 = 0.0453 | 995.228 | 1533.2
313.15 K, m1 = 0.0579 | 996.034 | 1534.4
313.15 K, m1 = 0.1204 | 1000.12 | 1540.1
313.15 K, m1 = 0.18 | 1003.93 | 1545.4
313.15 K, m1 = 0.2369 | 1007.47 | 1550.3
313.15 K, m1 = 0.3076 | 1011.84 | 1556.3
